In patent US20050277660A1, “Novel tetrahydroquinoline derivatives” (priority 2002, published 2005):

Assays:
[1] = system: Orchiectomized (ORX) Rats; assay: Effect on prostate, femoral bone mineral density and levator ani muscle in ORX rats, subcutaneous (Test Example 3); assay type: in vivo, rat; conditions: 4 weeks; for Femoral bone mineral density / Levator ani muscle weight / Prostate weight: 5 days per week, Mean ± SD; for Femoral bone mineral density: DEXA, right femur
Excerpt: (§1) Effect on Prostate, Femoral Bone Mineral Density, and Levator Ani Muscle in Orchiectomized (ORX) Rats
(§2) Testes were removed from 12-week-old male SD rats. […] The compounds of the Examples and the DHT were each dissolved in dimethyl sulfoxide, and then diluted 10-fold with olive oil. The resulting solution of each concentration was used in the test. In an ORX control group, dimethyl sulfoxide diluted 10-fold with olive oil was used for the test.

[2] = system: Orchiectomized (ORX) Rats; assay: Effect on prostate, femoral bone mineral density and levator ani muscle in ORX rats, subcutaneous (Test Example 2); assay type: in vivo, rat; conditions: 4 weeks; for Femoral bone mineral density / Levator ani muscle weight / Prostate weight: 5 days per week, Mean ± SD; for Femoral bone mineral density: DEXA, right femur
Excerpt: as §1
as §2, with “compound” for “compounds”, “Example” for “Examples”

[3] = biological target: T1, Rat Androgen Receptors (Rat AR) (Rattus norvegicus, UniProt P15207); assay: Test for competitive binding to rat androgen receptors (Test Example 1); conditions: 100×(IC50 of bicalutamide)/(IC50 of compound); bicalutamide taken as 100; 3H-testosterone, rat prostate AR fraction
T1 construct: from tissue; host or cells: prostate of orchiectomized male SD rats (100,000 x g supernatant of the homogenate)
T1 sequence (P15207 1-902): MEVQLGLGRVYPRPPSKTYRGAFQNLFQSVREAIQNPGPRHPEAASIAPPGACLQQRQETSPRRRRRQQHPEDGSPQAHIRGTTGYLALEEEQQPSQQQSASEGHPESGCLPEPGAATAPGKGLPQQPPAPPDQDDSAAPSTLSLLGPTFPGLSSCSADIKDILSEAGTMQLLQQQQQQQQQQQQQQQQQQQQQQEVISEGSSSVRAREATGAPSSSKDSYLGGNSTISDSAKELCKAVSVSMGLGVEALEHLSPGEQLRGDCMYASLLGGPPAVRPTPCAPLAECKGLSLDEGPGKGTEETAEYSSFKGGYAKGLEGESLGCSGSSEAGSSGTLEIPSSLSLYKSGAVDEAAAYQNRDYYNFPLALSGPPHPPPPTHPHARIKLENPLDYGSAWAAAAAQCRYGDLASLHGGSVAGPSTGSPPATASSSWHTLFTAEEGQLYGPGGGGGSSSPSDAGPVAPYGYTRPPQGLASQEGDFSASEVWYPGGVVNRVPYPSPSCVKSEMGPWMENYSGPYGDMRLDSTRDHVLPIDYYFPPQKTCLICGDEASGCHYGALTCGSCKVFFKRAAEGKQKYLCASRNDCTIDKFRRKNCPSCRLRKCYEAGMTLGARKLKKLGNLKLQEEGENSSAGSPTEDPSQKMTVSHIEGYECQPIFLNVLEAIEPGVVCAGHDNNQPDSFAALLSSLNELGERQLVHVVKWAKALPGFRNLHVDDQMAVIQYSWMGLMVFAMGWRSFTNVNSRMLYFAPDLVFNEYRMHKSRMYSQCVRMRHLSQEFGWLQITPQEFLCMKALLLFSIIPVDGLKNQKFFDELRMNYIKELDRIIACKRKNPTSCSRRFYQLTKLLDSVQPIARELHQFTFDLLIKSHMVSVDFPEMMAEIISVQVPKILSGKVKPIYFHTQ
Protocol: Test for Competitive Binding to Rat Androgen Receptors (Rat AR)
Preparation of rat AR fraction: Prostates were harvested into ice-cooled ET buffer (10 mM Tris, 1 mM EDTA, 5 mM DTT, 10 mM sodium molybdate, pH 7.4) 3 days after orchiectomy in 11-week-old male SD rats. The prostate was finely cut, and ET buffer was added, whereafter the mixture was homogenized using a homogenizer. The homogenate was ultracentrifuged (100,000×g, 60 min, 4° C.), and the supernatant was used as a rat AR fraction (hereinafter referred to as ARF).
Binding test: ^3H-testosterone (hereinafter referred to as ^3H-T) was diluted with ET buffer. Dihydrotestosterone (DHT) was prepared so as to have a concentration (final concentration 1 μM) 400 times the maximum concentration of ^3H-T (2.5 nM). The ^3H-T solution was added to a 1.5 ml tube containing DHT, no DHT, or various concentrations of a test compound. Further, 200 μg ARF was added to adjust the final volume to 100 μl. The mixture was incubated for 2 hours at 4° C., and then 300 μl of a 0.05% dextran T70-1.0% activated carbon solution was added. The mixture was further incubated for 15 minutes in ice to remove the free ^3H-T by adsorption. […] The mixture was stirred, allowed to stand, and measured for ^3H radioactivity with a liquid scintillation counter.

[4] = system: Orchiectomized (ORX) Rats; assay: Effect of oral administration on prostate, femoral bone mineral density and levator ani muscle in ORX rats (Test Example 4); assay type: in vivo, rat; conditions: 30 mg/kg orally twice daily, 4 weeks
Protocol: Effect of the Oral Administration on Prostate, Femoral Bone Mineral Density, and Levator Ani Muscle in Orchiectomized (ORX) Rats
Testes were removed from 12-week-old male SD rats. From the following day onward, the compound of Example 16 (30 mg/5 ml/kg) was orally administered twice daily for 4 consecutive weeks on 7 days per week. The test compound was suspended in a 0.5% methylcellulose solution as a solvent, and used in the test. In an ORX control group, a 0.5% methylcellulose solution (5 ml/kg) was administered. The rats, which had not been orchiectomized, but had been subjected to laparotomy, followed by closure of the abdomen, were used as a sham control group. On the next day after final administration, the wet weights of the ventral prostate and the levator ani muscle were measured, and the bone mineral density of the right femur was measured by the DEXA method (dual energy X-ray absorptiometry), to evaluate the in vivo effect of the compound of Example 16.

SMILES: CC(C)(CNC(=O)c1ccc(OCC(F)(F)F)cc1)[C@H]1Nc2ccc(C#N)cc2[C@H]2CCC[C@H]21 (relative stereo) [Example 8, (3aR*,4S*,9bS*)-N-[2-(8-Cyano-2,3,3a,4,5,9b-hexahydro-1H-cyclopenta[c]quinolin-4-yl)-2-methylpropyl]-4-(2,2,2-trifluoroethoxy)benzamide]
- Femoral bone mineral density ([1]; 30 mg/kg s.c. once daily): 136 ± 3 mg/cm^2
- Levator ani muscle weight ([1]; 30 mg/kg s.c. once daily): 58 ± 6 mg/100 g body weight
- Prostate weight ([1]; 30 mg/kg s.c. once daily): 62 ± 10 mg/100 g body weight
- weight of the prostate relative to that in the sham control group ([1]; 30 mg/kg s.c.): about 50%

SMILES: CC(C)(CNC(=O)c1ccc(OC(F)(F)F)cc1)[C@H]1Nc2ccc(C#N)cc2[C@H]2CCC[C@H]21 (relative stereo) [Example 1, (3aR*,4S*,9bS*)-N-[2-(8-cyano-2,3,3a,4,5,9b-hexahydro-1H-cyclopenta[c]quinolin-4-yl)-2-methylpropyl]-4-trifluoromethoxybenzamide]
- Femoral bone mineral density ([2]; 30 mg/kg s.c. once daily): 137 ± 7 mg/cm^2
- Levator ani muscle weight ([2]; 30 mg/kg s.c. once daily): 60 ± 6 mg/100 g body weight
- Prostate weight ([2]; 30 mg/kg s.c. once daily): 70 ± 13 mg/100 g body weight
- weight of the prostate relative to that in the sham control group ([2]; 30 mg/kg s.c.): about 74%

SMILES: C[C@]12CCC(=O)C[C@@H]1CC[C@@H]1[C@@H]2CC[C@]2(C)[C@@H](O)CC[C@@H]12 [DHT, dihydrotestosterone, reference compound]
- Femoral bone mineral density ([2]; 10 mg/kg s.c. once daily): 138 ± 6 mg/cm^2
- Levator ani muscle weight ([2]; 10 mg/kg s.c. once daily): 74 ± 6 mg/100 g body weight
- Prostate weight ([2]; 10 mg/kg s.c. once daily): 166 ± 33 mg/100 g body weight
- weight of the prostate relative to that in the sham control group ([2]; 10 mg/kg s.c.): about 175%
- Femoral bone mineral density ([1]; 10 mg/kg s.c. once daily): 138 ± 6 mg/cm^2
- Levator ani muscle weight ([1]; 10 mg/kg s.c. once daily): 85 ± 9 mg/100 g body weight
- Prostate weight ([1]; 10 mg/kg s.c. once daily): 162 ± 27 mg/100 g body weight
- weight of the prostate relative to that in the sham control group ([1]; 10 mg/kg s.c.): about 130%

SMILES: CC(=O)Nc1ccc(C(=O)NCC(C)(C)[C@H]2Nc3ccc(C#N)cc3[C@H]3CCC[C@H]32)cn1 (relative stereo) [Example 23, (3aR*,4S*,9bS*)-6-Acetamido-N-[2-(8-cyano-2,3,3a,4,5,9b-hexahydro-1H-cyclopenta[c]quinolin-4-yl)-2-methylpropyl]nicotinamide]
- RBA (relative binding inhibition rate, Relative Binding Affinity) [3]: 420
- Femoral bone mineral density ([1]; 30 mg/kg s.c. once daily): 137 ± 5 mg/cm^2
- Levator ani muscle weight ([1]; 30 mg/kg s.c. once daily): 72 ± 6 mg/100 g body weight
- Prostate weight ([1]; 30 mg/kg s.c. once daily): 111 ± 14 mg/100 g body weight
- weight of the prostate relative to that in the sham control group ([1]; 30 mg/kg s.c.): about 90%

SMILES: CC(C)(CNC(=O)c1ccc(NC=O)cc1)[C@H]1Nc2ccc(C#N)cc2[C@H]2CCC[C@H]21 (relative stereo) [Example 16, (3aR*,4S*,9bS*)-N-[2-(8-Cyano-2,3,3a,4,5,9b-hexahydro-1H-cyclopenta[c]quinolin-4-yl)-2-methylpropyl]-4-formylaminobenzamide]
- RBA (relative binding inhibition rate, Relative Binding Affinity) [3]: 406
- weight of the prostate relative to that in the sham control group [4]: about 90%
- Femoral bone mineral density ([4]; 7 days per week, DEXA, right femur, Mean ± SD): 136 ± 10 mg/cm^2
- Levator ani muscle weight ([4]; 7 days per week, Mean ± SD): 60 ± 6 mg/100 g body weight
- Prostate weight ([4]; 7 days per week, Mean ± SD): 90 ± 24 mg/100 g body weight
